Measurements: patent publication US9944678B2, “Immunomodulators” (BRISTOL-MYERS SQUIBB COMPANY, priority 2014, dated 2018)
Starred links: 1 amine or outer side, 2 acyl side, 3 side chain; linkers in the order of their positions; H or OH if unused. Positions of bridges follow the written chain, without caps; N, C: chain ends. Non-standard residues stand in square brackets, D forms with d. Residues, ends and D or L forms follow the SMILES beside them. ξ: configuration not given here. X2 = CC[C@H]1C[C@@]1(N[*:1])C(=O)[*:2]; Bta = N[C@@H](Cc1csc2ccccc12)C(=O)O; X3 = C[C@H]1CC1(N[*:1])C(=O)[*:2]; Hyp = O=C(O)[C@@H]1C[C@@H](O)CN1; NMeNle = CCCC[C@H](NC)C(=O)O; NMeA = CN[C@@H](C)C(=O)O; ξC = NC(CS)C(=O)O

Assays:
[1] = target: T1, PD-1-Ig binding to PD-L1-TVMV-His (PD-L1-His) (Homo sapiens, UniProt Q9NZQ7); assay: PD-1/PD-L1 Homogenous Time-Resolved Fluorescence (HTRF) binding assay; conditions: PD-1-Ig/PD-L1-His binding
T1 construct: hPDL1(19-239)-TVMV-His; TVMV protease cleavage site (C); made in house; host or cells: HEK293T cells
T1 sequence (Q9NZQ7 with tags, fused parts or gaps): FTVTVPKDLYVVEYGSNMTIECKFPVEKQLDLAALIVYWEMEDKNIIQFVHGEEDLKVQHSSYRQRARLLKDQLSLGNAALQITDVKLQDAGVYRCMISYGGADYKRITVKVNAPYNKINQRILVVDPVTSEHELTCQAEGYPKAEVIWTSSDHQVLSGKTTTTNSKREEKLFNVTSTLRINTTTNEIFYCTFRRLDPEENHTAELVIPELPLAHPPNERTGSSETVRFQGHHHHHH
Description: The ability of the macrocyclic peptides of the present disclosure to bind to PD-L1 was investigated using a PD-1/PD-L1 Homogenous Time-Resolved Fluorescence (HTRF) binding assay.
Homogenous Time-Resolved Fluorescence (HTRF) Assays of Binding of Soluble PD-1 to Soluble PD-L1. Soluble PD-1 and soluble PD-L1 refers to proteins with carboxyl-end truncations that remove the transmembrane-spanning regions and are fused to heterologous sequences, specifically the Fc portion of the human immunoglobuling G sequence (Ig) or the hexahistidine epitope tag (His). All binding studies were performed in an HTRF assay buffer consisting of dPBS supplemented with 0.1% (w/v) bovine serum albumin and 0.05% (v/v) Tween-20. For the PD-1-Ig/PD-L1-His binding assay, inhibitors were pre-incubated with PD-L1-His (10 nM final) for 15 m in 4 μl of assay buffer, followed by addition of PD-1-Ig (20 nM final) in 1 μl of assay buffer and further incubation for 15 m. PD-L1 fusion proteins from either human, cynomologous macaques, mouse, or other species were used. HTRF detection was achieved using europium crypate-labeled anti-Ig monoclonal antibody (1 nM final) and allophycocyanin (APC) labeled anti-His monoclonal antibody (20 nM final). Antibodies were diluted in HTRF detection buffer and 5 μl was dispensed on top of binding reaction. The reaction was allowed to equilibrate for 30 minutes and signal (665 nm/620 nm ratio) was obtained using an EnVision fluorometer. Additional binding assays were established between PD-1-Ig/PD-L2-His (20 and 5 nM, respectively), CD80-His/PD-L1-Ig (100 and 10 nM, respectively) and CD80-His/CTLA4-Ig (10 and 5 nM, respectively). Binding/competition studies between biotinylated Compound No. 71 and human PD-L1-His were performed as follows. Macrocyclic peptide inhibitors were pre-incubated with PD-L1-His (10 nM final) for 60 minutes in 4 μl of assay buffer followed by addition of biotinylated Compound No. 71 (0.5 nM final) in 1 μl of assay buffer. Binding was allowed to equilibrate for 30 minutes followed by addition of europium crypated labeled Streptavidin (2.5 pM final) and APC-labeled anti-His (20 nM final) in 5 μl of HTRF buffer. The reaction was allowed to equilibrate for 30 m and signal (665 nm/620 nm ratio) was obtained using an EnVision fluorometer.
Recombinant Proteins. Carboxyl-truncated human PD-1 (amino acids 25-167) with a C-terminal human Ig epitope tag [hPD-1 (25-167)-3S-IG] and human PD-L1 (amino acids 18-239) with a C-terminal His epitope tag [hPD-L1(19-239)-tobacco vein mottling virus protease cleavage site (TVMV)-His] were expressed in HEK293T cells and purified sequentially by recombinant Protein A affinity chromatography and size exclusion chromatography. Human PD-L2-His (Sino Biologicals), CD80-His (Sino Biologicals), CTLA4-Ig (RnD Systems) were all obtained through commercial sources.
Ranges are as follows: A=0.10-10 μM; B=0.01-0.099 μM; C=0.004-0.0099 μM.

[2] = oral formulation ENTOCORT EC, extensive first-pass metabolism; cited from earlier work

SMILES	IC50 ([1]; values given as range classes) [nM]	also measured
CCCC[C@H]1C(=O)N(C)[C@@H](CCCC)C(=O)N[C@@H](CCCNC(=N)N)C(=O)NC(C(=O)NCC(N)=O)CSCC(=O)N[C@@H](Cc2ccc(O)cc2)C(=O)N(C)[C@@H](C)C(=O)N[C@@H](CC(N)=O)C(=O)N2CCC[C@H]2C(=O)N[C@@H](Cc2cnc[nH]2)C(=O)N[C@@H](CC(C)C)C(=O)NC2(C[C@@H]2C)C(=O)N[C@@H](Cc2c[nH]c3ccccc23)C(=O)N[C@@H](CO)C(=O)N[C@@H](Cc2csc3ccccc23)C(=O)N1C (stereo partly shown) [Example 10005] ({CH2CO}-Y[NMeA]NPHL[X3]WS[Bta][NMeNle][NMeNle]R[ξC]G-NH2; thioether N-14)	–	IC50 ([1]; numeric values): 1000 nM
CCCC[C@H]1C(=O)N(C)[C@@H](CCCC)C(=O)N[C@@H](CCCNC(=N)N)C(=O)NC(C(=O)NCC(N)=O)CSCC(=O)N[C@@H](Cc2ccc(O)cc2)C(=O)N(C)[C@@H](C)C(=O)N[C@@H](CC(N)=O)C(=O)N2C[C@H](O)C[C@H]2C(=O)N[C@@H](Cc2cnc[nH]2)C(=O)N[C@@H](CC(C)C)C(=O)NC2(C[C@@H]2C)C(=O)N[C@@H](Cc2c[nH]c3ccccc23)C(=O)N[C@@H](CO)C(=O)N[C@@H](Cc2csc3ccccc23)C(=O)N1C (stereo partly shown) [Example 10006] ({CH2CO}-Y[NMeA]N[Hyp]HL[X3]WS[Bta][NMeNle][NMeNle]R[ξC]G-NH2; thioether N-14)	100 to 10000	–
CCCC[C@H]1C(=O)N(C)[C@@H](CCCC)C(=O)N[C@@H](CCCNC(=N)N)C(=O)NC(C(=O)NCC(N)=O)CSCC(=O)N[C@@H](Cc2ccc(O)cc2)C(=O)N(C)[C@@H](C)C(=O)N[C@@H](CC(N)=O)C(=O)N2C[C@H](O)C[C@H]2C(=O)N[C@@H](Cc2cnc[nH]2)C(=O)N[C@@H](CC(C)C)C(=O)NC2(C[C@@H]2C)C(=O)N[C@@H](Cc2c[nH]c3ccccc23)C(=O)N[C@@H](CO)C(=O)N[C@@H](Cc2c[nH]c3ccccc23)C(=O)N1C (stereo partly shown) [Example 10007]	100 to 10000	–
CCCC[C@H]1C(=O)N(C)[C@@H](CCCC)C(=O)N[C@@H](CCCNC(=N)N)C(=O)NC(C(=O)NCC(N)=O)CSCC(=O)N[C@@H](Cc2ccc(O)cc2)C(=O)N(C)[C@@H](C)C(=O)N[C@@H](CC(N)=O)C(=O)N[C@]2(C[C@@H]2CC)C(=O)N[C@@H](Cc2cnc[nH]2)C(=O)N[C@@H](CC(C)C)C(=O)N2C[C@H](O)C[C@H]2C(=O)N[C@@H](Cc2c[nH]c3ccccc23)C(=O)N[C@@H](CO)C(=O)N[C@@H](Cc2csc3ccccc23)C(=O)N1C (stereo partly shown) [Example 10008] ({CH2CO}-Y[NMeA]N[X2]HL[Hyp]WS[Bta][NMeNle][NMeNle]R[ξC]G-NH2; thioether N-14)	10 to 99	–
CCCC[C@H]1C(=O)N(C)[C@@H](CCCC)C(=O)N[C@@H](CCCNC(=N)N)C(=O)NC(C(=O)NCC(N)=O)CSCC(=O)N[C@@H](Cc2ccc(O)cc2)C(=O)N(C)[C@@H](C)C(=O)N[C@@H](CC(N)=O)C(=O)N[C@]2(C[C@@H]2CC)C(=O)N[C@@H](Cc2cnc[nH]2)C(=O)N[C@@H](CC(C)C)C(=O)N2C[C@H](O)C[C@H]2C(=O)N[C@@H](Cc2c[nH]c3ccccc23)C(=O)N[C@@H](CO)C(=O)N[C@@H](Cc2c[nH]c3ccccc23)C(=O)N1C (stereo partly shown) [Example 10009] ({CH2CO}-Y[NMeA]N[X2]HL[Hyp]WSW[NMeNle][NMeNle]R[ξC]G-NH2; thioether N-14)	100 to 10000	–
CCCC[C@H]1C(=O)N(C)[C@@H](CCCC)C(=O)N[C@@H](CCCNC(=N)N)C(=O)NC(C(=O)NCC(N)=O)CSCC(=O)N[C@@H](Cc2ccc(O)cc2)C(=O)N(C)[C@@H](C)C(=O)N[C@@H](CC(N)=O)C(=O)N[C@]2(C[C@@H]2CC)C(=O)N[C@@H](Cc2cnc[nH]2)C(=O)N[C@@H](CC(C)C)C(=O)N2CCC[C@H]2C(=O)N[C@@H](Cc2c[nH]c3ccccc23)C(=O)N[C@@H](CO)C(=O)N[C@@H](Cc2c[nH]c3ccccc23)C(=O)N1C (stereo partly shown) [Example 10010] ({CH2CO}-Y[NMeA]N[X2]HLPWSW[NMeNle][NMeNle]R[ξC]G-NH2; thioether N-14)	100 to 10000	–
CCCC1O[C@@H]2C[C@H]3[C@@H]4CCC5=CC(=O)C=C[C@]5(C)[C@H]4[C@@H](O)C[C@]3(C)[C@]2(C(=O)CO)O1 (stereo partly shown) [budesonide]	–	bioavailability [2]: about 10%
